What was measured:
[1] = Stability in concentrated aqueous acid (HCl); format: physicochemical; settings: about 5 N to 12 N HCl, about 65° C. to about 110° C.; conditions that destroy other sugars and demethylate D-Pinitol
Excerpt: Therefore this single reaction provides D-chiro-inositol that is substantially free of other contaminating carbohydrates, thus eliminating the need for subsequent purification techniques.
One aspect of the invention involves the conversion of […] a concentrated acid. […] Thus a crude D-chiro-inositol composition comprising one or more components where at least 10% (w/w) of the mass is a D-chiro-inositol moiety is subject to concentrated acid in a solution of about 5 N to 12 N HCl at a temperature in the range of about 65° C. to about 110° C. for a period of time.

[2] = test system: ovulation in women afflicted with polycystic ovary syndrome; settings: 44 women with PCOS; DCI 1200 mg/day for 6-8 weeks; placebo 27%; cited from earlier work
[3] = test system: glucose tolerance and insulin secretion; settings: subjects with impaired glucose tolerance; DCI 1200 mg/day for 2 weeks; restored to normal levels; cited from earlier work
insulin sensitivity = settings: oral supplementation, insulin resistant individuals; cited from earlier work

stability under acidic conditions [1]: stable
SMILES: OC1C(O)C(O)C(O)C(O)C1O [DCI, D-chiro-inositol]
ovulation, proportion of patients [2]: 86%
glucose tolerance [3]: restored
insulin secretion [3]: restored
insulin sensitivity (insulin sensitivity): improves insulin sensitivity

Reference: patent US6660891B2, “Methods for the production of D-chiro-inositol and the use of D-chiro inositol obtained therefrom” (Insmed Incorporated, priority 2000, dated 2003)
